Assay results published in patent US20100003217A1, “Compounds and Pharmaceutical Compositions for the Treatment of Viral Infections” (priority 2008, published 2010).

Assay: Metabolite profile in rat urine
Format: in vivo, male Sprague-Dawley rats
Conditions: for Percent of Dose, Urine 0-24 h: after [14C]Compound 1; for % AD, estimated: from single animal HPLC distribution and mean % AD
Experimental: Pooled urine samples were prepared for Groups 1C and 2C by mixing a fixed percent of the total volume for all four animals from the selected time points. For Group 1C, samples of the 1-, 2-, 6-, and 24-h collection intervals were pooled. For Group 2C, a pool of samples from all four animals was prepared for the 24 h collection intervals only. For 1-, 2-, and 6 h collection intervals, a urine sample of a single animal of Group 2A or 2B was used for analysis. All samples were brought to room temperature and vortexed briefly. The samples were diluted as necessary (2- to 20-fold) with appropriate aqueous mobile phase for the selected HPLC method. The pooled and diluted samples from the 24 h collection interval were centrifuged at 2040×g for 10 minutes. All other samples were analyzed without centrifugation. HPLC method 1 was used for HPLC profiling. Selected samples were analyzed by HPLC method 2 for comparison with the metabolite profile generated by microsomal and hepatocyte incubations (Examples 14 and 15) and with the metabolite profile of liver extracts.
Percent of the administered dose (% AD) for parent drug and each metabolite at each collection period=(% of the total radioactivity in the sample attributed to the metabolite)*(total radioactivity expressed as % of the administered dose, recovered during the corresponding collection period).
HPLC analyses of pooled urine samples of all time points were conducted for Group 1C. Metabolites R1, R2, R3, R4, R5, R6, R7 and R8 were characterized based on retention time.
For the PO dose group, a pooled urine sample from the 24-h collection time was analyzed. For 1-, 2-, and 6-h collection times, the majority of the samples had been used for radioanalysis. The remaining samples were insufficient for proportional pooling. Therefore, single animal samples of […] groups were used for HPLC profiling. Metabolites R^1, R^2, R^3, R^4, R^5, R^6, R^7 and R^8 were characterized based on retention time.
Table 50 contains data from single animal samples and pooled samples. To estimate overall distribution of urinary metabolites, it was assumed that the profile from a single animal is reflective of the overall average metabolite profile. Therefore, HPLC distribution data from single animals was used to calculate the percentage of administered dose excreted as various metabolites during the 1-, 2-, and 6-h collection intervals. Metabolites R1, R2, R3, R4, R5, R6, R7 and R8 were characterized based on retention time.

[1] = PO dose urine, 1 h collection, single animal (#15, Group 2A)
[2] = PO dose urine, 2 h collection, single animal (#20, Group 2B)
[3] = PO dose urine, 6 h collection, single animal (#20, Group 2B)
[4] = estimated profile table, group 2C (PO dose) urine, 24 h
[5] = group 1C (IV dose) pooled urine, 1 h collection
[6] = group 1C (IV dose) pooled urine, 2 h collection
[7] = group 1C (IV dose) pooled urine, 6 h collection
[8] = group 1C (IV dose) pooled urine, 24 h collection
[9] = group 2C (PO dose) pooled urine, 24 h collection

Compound: C[C@@]1(O)[C@H](O)[C@@H](CO)O[C@H]1n1cnc2c(=O)[nH]c(N)nc21 [2′-C-methyl guanosine, 9-(2-C-methyl-β-D-ribofuranosyl)guanine, reference compound]
- Total excretion (% AD), urine (IV (1C)): 18.0 % AD
- Percent of Dose, Urine 0-24 h (IV): 18.0% of Dose
- Percent of Dose, Urine 0-24 h (Oral): 2.56% of Dose
- Total excretion (% AD), urine (PO (2C), urine data estimated): 2.56 % AD
- % AD (percent of administered dose) [1]: 0.004 % AD
- % HPLC (percent of HPLC peak area in the sample extract) [1]: 5.33%
- % AD (percent of administered dose) [2]: 0.06 % AD
- % HPLC (percent of HPLC peak area in the sample extract) [2]: 56.2%
- % AD (percent of administered dose) [3]: 0.24 % AD
- % HPLC (percent of HPLC peak area in the sample extract) [3]: 86.18%
- % AD [4]: 2.14 % AD
- % HPLC (percent of HPLC peak area in the sample extract) [4]: 92.1%
- % of total urinary excretion, estimated (estimated profile, group 2C (PO dose) urine): 90.4%
- % AD, estimated (estimated profile, group 2C (PO dose) urine, 1 h): 0.001 % AD
- % HPLC (percent of HPLC peak area in the sample extract) (estimated profile, group 2C (PO dose) urine, 1 h, single animal % HPLC distribution): 5.33%
- % AD, estimated (estimated profile, group 2C (PO dose) urine, 2 h): 0.02 % AD
- % HPLC (percent of HPLC peak area in the sample extract) (estimated profile, group 2C (PO dose) urine, 2 h, single animal % HPLC distribution): 56.2%
- % AD, estimated (estimated profile, group 2C (PO dose) urine, 6 h): 0.40 % AD
- % HPLC (percent of HPLC peak area in the sample extract) (estimated profile, group 2C (PO dose) urine, 6 h, single animal % HPLC distribution): 86.18%
- Total % AD, estimated (estimated profile, group 2C (PO dose) urine, total of all collections): 2.56 % AD
- % AD (percent of administered dose) [5]: 0.48 % AD
- % HPLC (percent of HPLC peak area in the sample extract) [5]: 2.12%
- % AD (percent of administered dose) [6]: 1.79 % AD
- % HPLC (percent of HPLC peak area in the sample extract) [6]: 35.1%
- % AD (percent of administered dose) [7]: 1.35 % AD
- % HPLC (percent of HPLC peak area in the sample extract) [7]: 57.7%
- % AD (percent of administered dose) [8]: 14.4 % AD
- % HPLC (percent of HPLC peak area in the sample extract) [8]: 86.7%
- % of total urinary excretion (group 1C (IV dose) urine): 38.4%
- Total % AD (group 1C (IV dose) urine, total of all collections): 18.0 % AD
- % AD (percent of administered dose) [9]: 2.14 % AD
- % HPLC (percent of HPLC peak area in the sample extract) [9]: 92.1%
- % of the total urinary excretion (rat urine, IV dose 50 mg/kg): 38.4%
- urinary component, % of the administered dose (% AD) (rat urine, IV dose 50 mg/kg, 0-24 h, 50 mg/kg): 18 % AD
- % of the total urinary excretion (rat urine, PO dose 100 mg/kg): 90.4%
- urinary component, estimated % of the administered dose (% AD) (rat urine, PO dose 100 mg/kg, 0-24 h): 2.6 % AD
